Laboratory results from patent publication US20260115177A1, “MEDICINAL PRODUCTS AND METHODS FOR THE ALLEVIATION OF CANCER IMMUNOTHERA-PY-ASSOCIATED CYTOKINE RELEASE SYNDROME” (POOLBEG PHARMA (UK) LIMITED, priority 2023, published 2026).

Assays:
Format in all cases: cell-based, human
CD19+ cancer cells = experiment: CAR T cell killing of tumour cells in 24-hour co-culture (flow cytometry); conditions: high dose only, CAR T to cancer cell ratio 1:1
Excerpt: Raji immortalized human B cell line CD19-expressing cancer cells (available from the American Type Culture Collection) are acquired and stable transfection of the Raji cell line is generated with an mCherry reporter protein to facilitate identification of the cancer cells within co-cultures by detection of the mCherry protein fluorescence by flow cytometry.
UR-13870, Ralimetinib or Acumapimod are each added to a culture of CD19+ cancer cells (using a micropipette to transfer the correct volume to achieve the desired final concentration in Table 2).
CAR T cells are then added to the same culture 5-10 minutes later. In brief, CAR T cell concentrations per ml are determined and used to aliquot the desired number of CAR T cells into the culture to achieve the described 1:1 CAR T to cancer cell ratio.
The co-culture containing CAR T cells and tumour cells is swirled gently to ensure homogenous dispersion of cells throughout the vessel. The resultant co-culture is incubated for 24 to 96 hours in a closed incubator at 37° C. with 5% CO2 and a suitably humid atmosphere.
Tumour cell death is observed by examining relative CAR T cell:tumour cell numbers by flow cytometry following 24 hour co-culture, as shown in FIG. 7.

HUVEC endothelial cells [1] = experiment: QPCR of ICAM1 in HUVEC cells treated with sCART-mono supernatant; conditions: 24 hours
Protocol: With reference to FIG. 13 of the accompanying drawings, a co-culture (100) is established using a standard cell culture transwell dish, including a first compartment (101), containing CAR T cells and cancer cells (at a 1:1 ratio), which is separated from a second compartment (102), containing monocytes, by a semi-permeable membrane (103) composed of tissue-culture treated polyethylene terephthalate with a 0.4 μm pore size.
Each of UR-13870, Acumapimod and Ralimetinib are administered to the co-culture following a procedure analogous to that described in Example 2 above (at the concentrations as shown in Table 2 above).
The co-culture is incubated at 37° C., 5% CO2 and a suitably humid environment for 24 hours. On completion, the transwell insert is removed and supernatant is isolated. Cells and debris are removed from the supernatant by exposing the container to a centripetal force of 400 G and gently pipetting the supernatant into a new container without disturbing the cell pellet at the bottom of the previous container.
Prior to adding the p38 inhibitors and sCART-mono, endothelial cells are incubated overnight at 37° C. and 5% CO2 in a suitably humid environment to allow the cells to adhere fully to the tissue culture dish.
Reduced endothelial cell activation is evidenced by reduced ICAM1 expression in response to treatment with UR-13870, Acumapimod and Ralimetinib.

HUVEC endothelial cells [2] = experiment: IL-6 and IL-8 ELISA of HUVEC endothelial cells treated with sCAR; conditions: sCAR stimulation, 24 hours; concentrations of Table 2
Protocol: In like manner and also in Example 3 below, sCAR (or smCAR) is added to endothelial (HUVEC) cells, available from the American Type Culture Collection, and using an equivalent protocol to the treatment of THP-1 cells (but with individually optimised conditions, such as the concentration of sCAR used), following which IL-6 release and IL-8 release are observed. Pro-inflammatory cytokines IL-6 and IL-8 are measured using an enzyme-linked immunosorbent assay (ELISA) and IL-6, ICAM1 and VCAM1 are measured by quantitative PCR (QPCR, for which a kit is suitably obtainable from Thermo Fisher Scientific of Kingfisher Dr, Swindon SN3 5BZ, UK).
sCAR (or smCAR), produced as described in Example 1 above, is added to a monoculture of HUVEC endothelial cells in the presence of UR-13870, Ralimetinib or Acumapimod at each of the concentrations shown in Table 2 above, at 37° C., 5% CO2 and a suitably humid environment for 24 hours.
Supernatant levels of IL-6 and IL-8 from the HUVEC endothelial cell monoculture with sCAR (or smCAR) are determined by ELISA.

OCCCn1cc2c(-c3ccc(F)cc3)c(-c3ccncc3)c(-c3ccc(F)cc3)nc2n1 [UR-13870, 6-bis(4-fluorophenyl)-5-(4-pyridinyl)-2Hpyrazolo[3,4-b]pyridine-2-propanol] was tested, and the “CAR T cell-induced cancer cell death (percentage of residual tumour cells in the co-culture)” value (CD19+ cancer cells) was “maintain CAR T cell-induced cancer cell death”, the “ICAM1 expression (endothelial cell activation)” value (HUVEC endothelial cells [1]) was “reduced” and the “IL-6 secretion by HUVEC cells” value (HUVEC endothelial cells [2]) was “significantly reduce”. For the same molecule, the “IL-8 supernatant level, HUVEC cells” value (HUVEC endothelial cells [2]) was “reduced”.
